In one series the test system is PHH spheroids. Put plainly: Viability (cellular ATP, CellTiter-Glo) of 3D PHH spheroids after single or repeated exposure. Format: cell-based, human. Conditions: for EC50: read-out: EC50 (viability).
A further series concerns HepaRG cells. Put plainly: cells. Format: cell-based. Conditions: Homo sapiens; for EC50: read-out: EC50 (viability).
The subject of a further series is hiPS-Hep cells. Kind of series: Viability (cellular ATP, CellTiter-Glo) of hiPS-Hep cells after single or repeated exposure. Format: cell-based. Conditions: Homo sapiens; for EC50: read-out: EC50 (viability); for IC50: read-out: 14-day IC50.
The test system of another series is HepaRG. Conditions: cited from earlier work.
The next series concerns HepG2. To be noted: cited from earlier work.
For a further series, the system named is HLC. Also noted: method as in Takayama et al. (2013), Tasnim et al. (2016). Conditions: read-out: Sensitivity, HLC Acute, cited from earlier work.
A further series concerns C3A. Details: method as in Fey and Wrzesinski (2012). To be noted: published spheroid model, acute; ref Fey and Wrzesinski (2012); read-out: Sensitivity, C3A Acute; cited from earlier work.
Another series relates to Rat Hepatocytes. Also noted: method as in Schutte et al. (2011). Conditions: published model, acute; ref Schutte et al. (2011); read-out: Sensitivity, Rat Hepatocytes Acute; cited from earlier work.
The conditions of series [1]: 4 g APAP daily for 14 days; ref Watkins et al., 2006; cited from earlier work.
The conditions of series [2]: cited from earlier work; for Cmax: human.
A further series concerns BSEP. Details: method as in Funk et al., 2001. To be noted: ref Funk et al., 2001; read-out: IC50 of BSEP inhibition; cited from earlier work.
Setting [3] is: 336 h, HepaRG cells, 14 days repeated exposure, read-out: 14-day IC50.
Where [4] appears, read: 336 h, hiPS-Hep cells, 14 days repeated exposure.
Setting [5] is: published spheroid model, acute, ref Gunness et al. (2013), Mueller et al. (2014), read-out: Sensitivity, HepaRG Acute.
The mark [6] stands for this setting: published spheroid model, acute, ref Mueller et al. (2014), Ramaiahgari et al. (2014), Takayama et al. (2013), read-out: Sensitivity, HepG2 Acute.
Setting [7] is: published spheroid model, repeated dose 6 days, ref Ramaiahgari et al. (2014), read-out: Sensitivity, HepG2 Repeated Dose (6 Days).
Setting [8] is: published spheroid model, acute, ref Takayama et al. (2013), Tasnim et al. (2016).

Counter-ions that a name gives are not always drawn. Like-named read-outs stand apart in the source and are kept apart here.

Usually EC50 stands for the concentration at which the effect is half-maximal. As usually defined, the Cmax is the highest concentration seen after dosing. Turning to `CC(=O)Nc1ccc(O)cc1` [APAP, acetaminophen], the EC50 was over 10000 µM with PHH spheroids (Homo sapiens, 48 h); 2700 µM in the series on PHH spheroids (Homo sapiens, 168 h); 644 µM with PHH spheroids (Homo sapiens, 336 h); 5920 µM in the series with HepaRG cells (HepaRG, 48 h); 1590 µM with HepaRG cells (HepaRG, 168 h); 1310 µM in the series with HepaRG cells (HepaRG, 336 h). Further, the EC50 in the series on hiPS-Hep cells (48 h) is over 10000 µM; with hiPS-Hep cells (168 h), over 10000 µM; in the series on hiPS-Hep cells (336 h) it was 9440 µM. For the same molecule, the IC50 was 644 µM in the series with PHH spheroids (Homo sapiens, 336 h, PHH spheroids, 14 days repeated exposure, read-out: 14-day IC50); 1310 µM in the series on HepaRG cells (setting [3]); 5920 µM in the series with HepaRG cells (read-out: 48-hour IC50, HepaRG cells, acute, 48 hours); 9440 µM with hiPS-Hep cells (setting [4]); 3000 µM in the series with HepaRG (setting [5]); 24000 µM with HepG2 (setting [6]). In addition, the IC50 is 9400 µM with HepG2 (setting [7]), 30000 µM with HLC (setting [8]), 40000 µM in the series with C3A and 40000 µM in the series on Rat Hepatocytes. The “healthy volunteers with serum alanine aminotransferase elevations above three times the upper limit” value in series [1] is listed as 31%–44%. Besides, the “peak APAP serum level average” value in [2] (healthy volunteers, 4 g APAP daily for 14 days, ref Watkins et al., 2006) is recorded as 99.2 µM. In series [2] (patients after acute overdose, depending on additional risk factors, ref Vale and Proudfoot, 1995), the “APAP plasma concentration for which immediate treatment is stipulated” value is 0.7 to 1.3 mM. For the same molecule, the Cmax in series [2] (read-out: Cmax or exposure value (toxic), toxic exposure, ref Vale and Proudfoot, 1995) was 700000 nM.
Regarding aflatoxin B1, the IC50 is 0.4 µM in the series on PHH spheroids (read-out: Sensitivity, PHH Acute); 0.03 µM in the series with PHH spheroids (read-out: Sensitivity, PHH Repeated Dose (14 Days)); 1.6 µM in the series on HepaRG (read-out: Sensitivity, HepaRG Acute); over 200 µM with HepG2 (read-out: Sensitivity, HepG2 Acute); 7 µM with HLC. The “exposure levels detected in exposed individuals” value in series [2] (in vivo) is 28.5 nM. Further, the Cmax in series [2] (read-out: Cmax or exposure value (toxic), in vivo) was 30 nM.
As to `Cc1c(C)c2c(c(C)c1O)CCC(C)(COc1ccc(CC3SC(=O)NC3=O)cc1)O2` (stereo not drawn) [Troglitazone, troglitazone], the EC50 was 37.4 µM in the series with PHH spheroids (Homo sapiens, 48 h); 4.2 µM in the series with PHH spheroids (Homo sapiens, 168 h); 1.5 µM with PHH spheroids (Homo sapiens, 336 h); over 100 µM in the series with HepaRG cells (HepaRG, 48 h); 36.5 µM with HepaRG cells (HepaRG, 168 h); 34.6 µM in the series with HepaRG cells (HepaRG, 336 h). Also, the results for the EC50 in the series with hiPS-Hep cells (48 h), with hiPS-Hep cells (168 h) and in the series on hiPS-Hep cells (336 h) were 46 µM, 33.9 µM and 18.7 µM, respectively. The IC50 with PHH spheroids (Homo sapiens, read-out: Sensitivity, PHH Acute) is 37.4 µM; in the series on HepaRG cells (HepaRG, 336 h, read-out: 14-day IC50), 34.6 µM; in the series with hiPS-Hep cells (336 h), 18.7 µM; in the series on HepaRG (setting [5]), 400 µM; in the series with HepG2 (setting [6]) it was 80 to 150 µM; in the series with HepG2 (setting [7]) it was 100 µM. In the series with HLC (setting [8]), the IC50 is 50 µM. In addition, the Cmax in series [2] (read-out: therapeutic Cmax, ref Loi et al., 1999) was 2820 nM.
Turning to `CCOC(=O)CN[C@@H](C(=O)N1CC[C@H]1C(=O)NCc1ccc(/C(N)=N\O)cc1)C1CCCCC1` [Ximelagatran, ximelagatran], the EC50 was over 400 µM in the series on PHH spheroids (Homo sapiens, 48 h); 379 µM in the series on PHH spheroids (Homo sapiens, 168 h); 165 µM in the series on PHH spheroids (Homo sapiens, 336 h); over 400 µM with HepaRG cells (HepaRG, 48 h); over 400 µM in the series with HepaRG cells (HepaRG, 168 h); over 400 µM in the series with HepaRG cells (HepaRG, 336 h). In addition, the EC50 with hiPS-Hep cells (48 h), in the series with hiPS-Hep cells (168 h) and in the series on hiPS-Hep cells (336 h) was over 400 µM throughout.
`CN(C)CCCN1c2ccccc2Sc2ccc(Cl)cc21` [Chlorpromazine, chlorpromazine]: the EC50 in the series with PHH spheroids (Homo sapiens, 48 h) came to 16.6 µM; in the series on PHH spheroids (Homo sapiens, 168 h), 8.8 µM; in the series on PHH spheroids (Homo sapiens, 336 h), 4.6 µM; with HepaRG cells (HepaRG, 48 h), 67 µM; in the series with HepaRG cells (HepaRG, 168 h), 32.4 µM; in the series with HepaRG cells (HepaRG, 336 h), 34.1 µM. For the same molecule, the EC50 with hiPS-Hep cells (48 h) came out at 38.6 µM; in the series with hiPS-Hep cells (168 h), 23.7 µM; with hiPS-Hep cells (336 h) it was 24.4 µM. Moreover, the IC50 is 34.1 µM in the series with HepaRG cells (setting [3]); 24.6 µM with hiPS-Hep cells (setting [4]); 98 µM in the series with HepaRG (setting [5]); 43 µM in the series with HepaRG (published spheroid model, repeated dose 72 h, ref Mueller et al. (2014), read-out: Sensitivity, HepaRG Repeated Dose (72 h)); 43 µM with HepG2 (setting [6]). Besides, in [2] (read-out: human toxic Cmax, toxic exposure, ref Regenthal et al., 1999), the Cmax is 1600 nM.
Regarding `Cc1c(C)c2c(c(C)c1OS(=O)(=O)O)CCC(C)(COc1ccc(CC3SC(=O)NC3=O)cc1)O2` (stereo not drawn) [troglitazone sulfate], the IC50 with BSEP is 0.4 µM.

(Values after article PMC5363699, “Transcriptional, Functional, and Mechanistic Comparisons of Stem Cell–Derived Hepatocytes, HepaRG Cells, and Three-Dimensional Human Hepatocyte Spheroids as Predictive In Vitro Systems for Drug-Induced Liver Injury” (Drug Metabolism and Disposition, 2017).)
